From PubChem BioAssay AID248 (DTP/NCI, 2004)
Toxic doses and inconclusive results are not listed. Cut-off read from the data, not from the text of the source: active = T/C of 150% or more; inactive = T/C below 125%.

System: L1210 leukemia ip in BDF1 mice, survival T/C
Experiment: NCI In Vivo Anticancer Drug Screen. Data for tumor model L1210 Leukemia (intraperitoneal) in B6D2F1 (BDF1) mice
Conditions: endpoint: mean survival time, higher = longer survival
Summary of the method: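 Antitumor effect is assessed in tumor-bearing animals. Survival in the compound arm is compared with a vehicle-dosed control arm and expressed as their quotient.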

[1] = dose: 100.0 mg/kg/injection, schedule: Q04DX002 (ip), vehicle: Klucel (hydroxypropylcellulose) (HPC)
[2] = dose: 200.0 mg/kg/injection, schedule: Q04DX002 (ip), vehicle: Klucel (hydroxypropylcellulose) (HPC)
[3] = dose: 15.0 mg/kg/injection, schedule: Q01DX Z (ip), vehicle: methylcellulose (MC)
[4] = dose: 30.0 mg/kg/injection, schedule: Q01DX Z (ip), vehicle: methylcellulose (MC)
[5] = dose: 60.0 mg/kg/injection, schedule: Q01DX Z (ip), vehicle: methylcellulose (MC)
[6] = dose: 60.0 mg/kg/injection, schedule: Q01DX Z (oral), vehicle: methylcellulose (MC)

Measured: T/C

O=C(CSc1cc(Cl)c(Cl)cc1Cl)Nc1ccc(Cl)cc1Cl
inactive: dose: 100.0 mg/kg/injection, schedule: Q01DX001 (ip), vehicle: saline with Tween-80 87 % of control | dose: 200.0 mg/kg/injection, schedule: Q01DX001 (ip), vehicle: saline with Tween-80 93 % of control | dose: 400.0 mg/kg/injection, schedule: Q01DX001 (ip), vehicle: saline with Tween-80 93 % of control

CC(=O)[O][Sn]([c]1ccccc1)([c]1ccccc1)[c]1ccccc1
inactive: dose: 0.39 mg/kg/injection, schedule: Q01DX009 (ip), vehicle: saline with Tween-80 98 % of control | dose: 0.78 mg/kg/injection, schedule: Q01DX009 (ip), vehicle: saline with Tween-80 93 % of control | dose: 1.0 mg/kg/injection, schedule: Q01DX015 (ip), vehicle: saline 97 % of control | dose: 1.56 mg/kg/injection, schedule: Q01DX009 (ip), vehicle: saline with Tween-80 106 % of control | dose: 1.56 mg/kg/injection, schedule: Q04DX003 (ip), vehicle: saline 106 % of control | dose: 2.0 mg/kg/injection, schedule: Q01DX015 (ip), vehicle: saline 89 % of control | dose: 2.33 mg/kg/injection, schedule: Q01DX009 (ip), vehicle: saline with Tween-80 105 % of control | dose: 3.54 mg/kg/injection, schedule: Q01DX009 (ip), vehicle: saline with Tween-80 100 % of control

O=C1c2ccccc2C(c2ccccc2)(N(CCCl)CCCl)N1C1CCCCC1 (stereo not given)
inactive: dose: 100.0 mg/kg/injection, schedule: Q04DX003 (ip), vehicle: Klucel (hydroxypropylcellulose) (HPC) 103 % of control | dose: 200.0 mg/kg/injection, schedule: Q04DX003 (ip), vehicle: Klucel (hydroxypropylcellulose) (HPC) 102 % of control | dose: 400.0 mg/kg/injection, schedule: Q04DX003 (ip), vehicle: Klucel (hydroxypropylcellulose) (HPC) 97 % of control

CC(CO)CCC1OC2CC3C4CCC5CC(O)CCC5(C)C4CCC3(C)C2C1C (stereo not given)
inactive: [1] 86 % of control | [2] 95 % of control | dose: 400.0 mg/kg/injection, schedule: Q04DX002 (ip), vehicle: Klucel (hydroxypropylcellulose) (HPC) 95 % of control

NC(=O)COc1ccc(Cl)cc1Cl
inactive: dose: 100.0 mg/kg/injection, schedule: Q01DX009 (ip), vehicle: Klucel (hydroxypropylcellulose) (HPC) 111 % of control | [1] 112 % of control | dose: 200.0 mg/kg/injection, schedule: Q01DX009 (ip), vehicle: Klucel (hydroxypropylcellulose) (HPC) 101 % of control | [2] 100 % of control

CCCCC#CC(=O)OCCCC
inactive: dose: 100.0 mg/kg/injection, schedule: Q04DX002 (ip), vehicle: saline 94 % of control | dose: 200.0 mg/kg/injection, schedule: Q04DX002 (ip), vehicle: saline 97 % of control | dose: 400.0 mg/kg/injection, schedule: Q04DX002 (ip), vehicle: saline 102 % of control

NC(N)=N/N=C(\c1ccc(Cl)cc1)C1CC1
inactive: [3] 101 % of control | [4] 95 % of control | dose: 30.0 mg/kg/injection, schedule: Q01DX Z (oral), vehicle: methylcellulose (MC) 92 % of control | [5] 98 % of control | [6] 93 % of control | dose: 240.0 mg/kg/injection, schedule: Q01DX Z (oral), vehicle: methylcellulose (MC) 95 % of control | dose: 375.0 mg/kg/injection, schedule: Q01DX Z (oral), vehicle: methylcellulose (MC) 92 % of control | dose: 500.0 mg/kg/injection, schedule: Q01DX Z (oral), vehicle: methylcellulose (MC) 88 % of control

CCC1(O)CCCC1
inactive: dose: 50.0 mg/kg/injection, schedule: Q01DX001 (ip), vehicle: carboxymethylcellulose (CMC) 95 % of control | dose: 100.0 mg/kg/injection, schedule: Q01DX001 (ip), vehicle: carboxymethylcellulose (CMC) 92 % of control | dose: 200.0 mg/kg/injection, schedule: Q01DX001 (ip), vehicle: carboxymethylcellulose (CMC) 92 % of control | dose: 400.0 mg/kg/injection, schedule: Q01DX001 (ip), vehicle: carboxymethylcellulose (CMC) 97 % of control

COc1ccc(/C=C2\CCC3C4(CCCC3(C)C2=O)OCCO4)cc1 (stereo not given)
inactive: dose: 200.0 mg/kg/injection, schedule: Q01DX009 (ip), vehicle: saline 92 % of control | dose: 400.0 mg/kg/injection, schedule: Q01DX009 (ip), vehicle: saline 101 % of control

O=C(O)c1ccc(OCC(=O)c2ccccc2)cc1
inactive: dose: 100.0 mg/kg/injection, schedule: Q01DX009 (ip), vehicle: saline with Tween-80 98 % of control | dose: 200.0 mg/kg/injection, schedule: Q01DX009 (ip), vehicle: saline with Tween-80 89 % of control

NC(CSS(=O)(=O)O)=NCCSc1ccc(Cl)cc1
inactive: dose: 6.25 mg/kg/injection, schedule: Q01DX009 (ip), vehicle: Klucel (hydroxypropylcellulose) (HPC) 95 % of control | dose: 12.5 mg/kg/injection, schedule: Q01DX009 (ip), vehicle: Klucel (hydroxypropylcellulose) (HPC) 104 % of control | dose: 12.5 mg/kg/injection, schedule: Q04DX002 (ip), vehicle: Klucel (hydroxypropylcellulose) (HPC) 100 % of control | dose: 25.0 mg/kg/injection, schedule: Q01DX009 (ip), vehicle: Klucel (hydroxypropylcellulose) (HPC) 107 % of control | dose: 25.0 mg/kg/injection, schedule: Q04DX002 (ip), vehicle: Klucel (hydroxypropylcellulose) (HPC) 100 % of control

COc1ccccc1/C=N\N=C(N/N=C/c1ccccc1OC)N/N=C/c1ccccc1OC
inactive: [3] 96 % of control | [4] 108 % of control | [5] 101 % of control | [6] 102 % of control | dose: 120.0 mg/kg/injection, schedule: Q01DX Z (ip), vehicle: methylcellulose (MC) 102 % of control | dose: 120.0 mg/kg/injection, schedule: Q01DX Z (oral), vehicle: methylcellulose (MC) 100 % of control | dose: 240.0 mg/kg/injection, schedule: Q01DX Z (ip), vehicle: methylcellulose (MC) 97 % of control | dose: 325.0 mg/kg/injection, schedule: Q01DX Z (oral), vehicle: methylcellulose (MC) 86 % of control | dose: 360.0 mg/kg/injection, schedule: Q01DX Z (ip), vehicle: methylcellulose (MC) 100 % of control | dose: 480.0 mg/kg/injection, schedule: Q01DX Z (ip), vehicle: methylcellulose (MC) 110 % of control | dose: 480.0 mg/kg/injection, schedule: Q01DX Z (oral), vehicle: methylcellulose (MC) 104 % of control | dose: 675.0 mg/kg/injection, schedule: Q01DX Z (oral), vehicle: methylcellulose (MC) 108 % of control

CC(=O)OC(C(=O)c1ccccc1)C(=O)c1ccccc1
inactive: dose: 100.0 mg/kg/injection, schedule: Q01DX001 (ip), vehicle: Klucel (hydroxypropylcellulose) (HPC) 88 % of control | dose: 200.0 mg/kg/injection, schedule: Q01DX001 (ip), vehicle: Klucel (hydroxypropylcellulose) (HPC) 108 % of control | dose: 400.0 mg/kg/injection, schedule: Q01DX001 (ip), vehicle: Klucel (hydroxypropylcellulose) (HPC) 88 % of control

CCOC(=O)C(C(=O)O)C(=O)CCO (stereo not given)
inactive: dose: 100.0 mg/kg/injection, schedule: Q01DX001 (ip), vehicle: saline 98 % of control | dose: 200.0 mg/kg/injection, schedule: Q01DX001 (ip), vehicle: saline 94 % of control

CCCC[n+]1cccc(C#N)c1
inactive: dose: 18.75 mg/kg/injection, schedule: Q01DX009 (ip), vehicle: saline 92 % of control | dose: 37.5 mg/kg/injection, schedule: Q01DX009 (ip), vehicle: saline 101 % of control | dose: 37.5 mg/kg/injection, schedule: Q04DX003 (ip), vehicle: saline 93 % of control | dose: 75.0 mg/kg/injection, schedule: Q01DX001 (ip), vehicle: saline 98 % of control | dose: 75.0 mg/kg/injection, schedule: Q01DX009 (ip), vehicle: saline 90 % of control | dose: 75.0 mg/kg/injection, schedule: Q04DX003 (ip), vehicle: saline 93 % of control | dose: 150.0 mg/kg/injection, schedule: Q01DX001 (ip), vehicle: saline 95 % of control | dose: 150.0 mg/kg/injection, schedule: Q04DX003 (ip), vehicle: saline 91 % of control
